# Measured values: article PMC8599628 (Journal of clinical pharmacology, 2021)
# Values joined by “and” are separate entries in the source; they are usually repeats but may differ in a detail not shown here. Identical values can stand only once. Like-named read-outs stand apart in the source and are kept apart here.
# What was measured:
# [1] = cited from earlier work
# [2] = cited from earlier work; remark: listed apart in the source
# [3] = cited from earlier work; remark: listed apart in the source
# [4] = test system: markers of immune activation; conditions: 10 mg bid for 5 weeks, virologically suppressed HIV+ participants; cited from earlier work
# CYP3A = conditions: 25 mg RIL daily; cited from earlier work
# CYP3A4/5 = conditions: cited from earlier work
structure (smiles),measurement,setting,value
N#CC[C@H](C1CCCC1)n1cc(-c2ncnc3[nH]ccc23)cn1 [ruxolitinib],orally absorbed,[1],> 95%
same,IIV Ka,[2],75%
same,IIV V1,[2],28%
same,IIV V2/F,[2],102%
same,V2,[2],11.2 L
same,IIV CL/F,[2]; myelofibrosis patients,39.1%
same,V1,[2]; normalized to a mean body weight of 72.9 kg,58.6 L
same,reduction of ruxolitinib CL/F,"[3]; 10 mg ruxolitinib tablet with 200 mg bid ketoconazole, N = 16",91%
same,reduction of ruxolitinib CL/F,"[3]; 10 mg ruxolitinib tablet with 500 mg erythromycin, N = 15",21%
same,increase in ruxolitinib CL/F,"[3]; 30 mg ruxolitinib tablet before and after 10 days of 600 mg rifampin, healthy participants N = 12",71%
same,CL/F typical value (with EFV),"Model IV (separated CL/F by EFV status), participants administered ART with EFV (N = 14)",22.5 L/h and 21.2 L/h
same,IIV V1 ω^2,"both, human, in vivo",0.0607
same,IOV F ω^2,"both, human, in vivo",0.0669
same,IOV F ω^2,"both, human, in vivo, po",0.0567
same,ruxolitinib CL/F with co-administered RIL regimens,co-administered RIL/FTC/TAF (N = 3) or RIL/FTC/TDF (N = 1),not increased
same,median post hoc estimated CL/F,"men, wk1",16.0 L/h
same,median post hoc estimated CL/F,"men, wk4/5",14.3 L/h
same,"geometric mean CL/F (post hoc, Model IV)","wk1, EFV/FTC/TDF group",22.3 L/h
same,"geometric mean CL/F (post hoc, Model IV)","wk1, INSTI group",13.8 L/h
same,mean post hoc predicted CL/F,"wk1, N = 39",16.6 L/h
same,"geometric mean CL/F (post hoc, Model IV)","wk4/5, EFV/FTC/TDF group",20.8 L/h
same,"geometric mean CL/F (post hoc, Model IV)","wk4/5, INSTI group",12.7 L/h
same,mean post hoc predicted CL/F,"wk4/5, N = 37",15.7 L/h
same,median post hoc estimated CL/F,"women, wk1",15.2 L/h
same,median post hoc estimated CL/F,"women, wk4/5",13.6 L/h
same,markers of immune activation,[4],significantly decreased
"Cc1cc(/C=C/C#N)cc(C)c1Nc1ccnc(Nc2ccc(C#N)cc2)n1 [RIL, rilpivirine]",effect on CYP3A-dependent drug metabolism,CYP3A,did not alter
"O=C1Nc2ccc(Cl)cc2[C@@](C#CC2CC2)(C(F)(F)F)O1 [EFV, efavirenz]",median increase in plasma 4β-OHCC/cholesterol ratio,CYP3A4/5; 4th week after initiation of ART with EFV,257%
same,median increase in plasma 4β-OHCC/cholesterol ratio,CYP3A4/5; 16th week after initiation of ART with EFV,291%
same,median increase in plasma 4β-OHCC/cholesterol ratio,CYP3A4/5; 48th week after initiation of ART with EFV,165%
